Test results: ChEMBL document CHEMBL4613208, “Isatin derivatives and their anti-bacterial activities” (Eur J Med Chem, 2019)
Converted amounts (≈) assume the structure as drawn.

Tests used:
Salmonella typhi = assay: Antibacterial activity against Salmonella typhi; assay type: functional, Salmonella enterica subsp. enterica serovar Typhi; settings: Salmonella enterica
Pseudomonas aeruginosa [1] = assay: Antibacterial activity against Pseudomonas aeruginosa; assay type: functional, organism-based
Staphylococcus aureus [2] = assay: Antibacterial activity against Staphylococcus aureus assessed as zone of inhibition at 100 ug/ml; assay type: functional; settings: for zone of inhibition at 100 µg/mL: read-out: IZ
Bacillus cereus = assay: Antibacterial activity against Bacillus cereus assessed as zone of inhibition at 100 ug/ml; assay type: functional; settings: for zone of inhibition at 100 µg/mL: read-out: IZ
Escherichia coli [3] = assay: Antibacterial activity against Escherichia coli assessed as zone of inhibition at 100 ug/ml; assay type: functional; settings: for zone of inhibition at 100 µg/mL: read-out: IZ
Pseudomonas aeruginosa [4] = assay: Antibacterial activity against Pseudomonas aeruginosa assessed as zone of inhibition at 100 ug/ml; assay type: functional; settings: for zone of inhibition at 100 µg/mL: read-out: IZ
Staphylococcus aureus [5] = assay: Antibacterial activity against Staphylococcus aureus; assay type: functional, organism-based
Escherichia coli [6] = assay: Antibacterial activity against Escherichia coli; assay type: functional, organism-based

Molecule | MIC (Salmonella typhi) [nM] | MIC (Pseudomonas aeruginosa [1]) | zone of inhibition at 100 µg/mL (Staphylococcus aureus [2]) [mm] | zone of inhibition at 100 µg/mL (Bacillus cereus) [mm] | zone of inhibition at 100 µg/mL (Escherichia coli [3]) [mm] | zone of inhibition at 100 µg/mL (Pseudomonas aeruginosa [4]) [mm] | further results
COc1ccc(NC(=O)CN2C(=O)/C(=N\c3ccccc3)c3ccccc32)cc1 | 3 to 324 (≈ 1.16 to 125 ng/mL) | 3 to 324 nM | – | – | – | – | –
Cc1ccc(NC(=O)CN2C(=O)/C(=N\c3cc(C)ccc3C)c3ccccc32)cc1 | 3 to 324 (≈ 1.19 to 129 ng/mL) | 3 to 324 nM | – | – | – | – | –
COc1ccc(C2SCC(=O)N2c2ccc(OCC(=O)N/N=C3\C(=O)N(CN4CCCCC4)c4ccccc43)c3ncccc23)cc1 (stereo not drawn) | – | – | 6 to 19 | 6 to 19 | 6 to 19 | 6 to 19 | –
Cc1nc2ccccc2cc1C(=O)N/N=C1\C(=O)Nc2ccccc21 | – | – | 6 to 19 | 6 to 19 | 6 to 19 | 6 to 19 | –
COc1ccc(C2C(Cl)C(=O)N2c2ccc(OCC(=O)N/N=C3\C(=O)N(CN4CCCCC4)c4ccccc43)c3ncccc23)cc1 (stereo not drawn) | – | – | 6 to 19 | 6 to 19 | 6 to 19 | 6 to 19 | –
CN1CCN(CN2C(=O)/C(=N\NC(=O)COc3ccc(N4C(=O)CSC4c4ccccc4)c4cccnc34)c3ccccc32)CC1 (stereo not drawn) | – | – | 6 to 19 | 6 to 19 | 6 to 19 | 6 to 19 | –
Cc1c(C)c2c(c(C)c1O)CCC(C)(C(=O)N/N=C1\C(=O)Nc3ccccc31)O2 (stereo not drawn) | – | 12.5 to 100 µg/mL | – | – | – | – | MIC (Staphylococcus aureus [5]): 12.5 to 100 µg/mL (≈ 31.8 to 254 µM); MIC (Escherichia coli [6]): 12.5 to 100 µg/mL (≈ 31.8 to 254 µM)
Cc1ccc(C2C(Cl)C(=O)N2c2ccc(OCC(=O)N/N=C3\C(=O)N(CN4CCCCC4)c4ccccc43)c3ncccc23)cc1 (stereo not drawn) | – | – | 6 to 19 | 6 to 19 | 6 to 19 | 6 to 19 | –
COc1cccc(NC(=O)CN2C(=O)/C(=N\c3ccccc3)c3ccccc32)c1 | 3 to 324 (≈ 1.16 to 125 ng/mL) | 3 to 324 nM | – | – | – | – | –
Cc1ccccc1NC(=O)CN1C(=O)/C(=N\c2ccccc2)c2ccccc21 | 3 to 324 (≈ 1.11 to 120 ng/mL) | 3 to 324 nM | – | – | – | – | –
Cc1nc2ccccc2cc1C(=O)N/N=C1\C(=O)Nc2ccc(F)c(Cl)c21 | – | – | 6 to 19 | 6 to 19 | 6 to 19 | 6 to 19 | –
O=C(COc1ccc(N2C(=O)C(Cl)C2c2ccc([N+](=O)[O-])cc2)c2cccnc12)N/N=C1\C(=O)N(CN2CCCCC2)c2ccccc21 (stereo not drawn) | – | – | 6 to 19 | 6 to 19 | 6 to 19 | 6 to 19 | –
CC[C@H]1OC(=O)[C@H](C)[C@@H](O[C@H]2C[C@@](C)(OC)[C@@H](O)[C@H](C)O2)[C@H](C)[C@@H](O[C@@H]2O[C@H](C)C[C@H](N(C)C)[C@H]2O)[C@](C)(O)C[C@@H](C)CN(C)[C@H](C)[C@@H](O)[C@]1(C)O [AZITHROMYCIN] | – | 6.25 to 12.5 µg/mL | – | – | – | – | MIC (Staphylococcus aureus [5]): 6.25 to 12.5 µg/mL (≈ 8.34 to 16.7 µM); MIC (Escherichia coli [6]): 6.25 to 12.5 µg/mL (≈ 8.34 to 16.7 µM)
Cc1ccc(C)c(/N=C2\C(=O)N(CC(=O)Nc3ccc(C)c(C)c3)c3ccccc32)c1 | 3 to 324 (≈ 1.23 to 133 ng/mL) | 3 to 324 nM | – | – | – | – | –
CN1CCN(CN2C(=O)/C(=N\NC(=O)COc3ccc(N4C(=O)C(Cl)C4c4ccccc4)c4cccnc34)c3ccccc32)CC1 (stereo not drawn) | – | – | 6 to 19 | 6 to 19 | 6 to 19 | 6 to 19 | –
O=C(COc1ccc(N2C(=O)CSC2c2ccccc2)c2cccnc12)N/N=C1\C(=O)N(CN2CCCCC2)c2ccccc21 (stereo not drawn) | – | – | 6 to 19 | 6 to 19 | 6 to 19 | 6 to 19 | –
O=C(COc1ccc(N2C(=O)CSC2c2ccc([N+](=O)[O-])cc2)c2cccnc12)N/N=C1\C(=O)N(CN2CCCCC2)c2ccccc21 (stereo not drawn) | – | – | 6 to 19 | 6 to 19 | 6 to 19 | 6 to 19 | –
Cc1nc2ccccc2cc1C(=O)N/N=C1\C(=O)Nc2cc(Cl)cc(Cl)c21 | – | – | 6 to 19 | 6 to 19 | 6 to 19 | 6 to 19 | –
CC1(C)S[C@@H]2[C@H](NC(=O)Cc3ccccc3)C(=O)N2[C@H]1C(=O)O [PENICILLIN G] | – | – | – | – | – | – | IC50 (Staphylococcus aureus [5]): 631 µM; IC50 (Pseudomonas aeruginosa [1]): 631 µM; IC50 (Escherichia coli [6]): 631 µM
Cc1c(C)c2c(c(C)c1O)CCC(C)(C(=O)N/N=C1\C(=O)Nc3cc(Cl)ccc31)O2 (stereo not drawn) | – | 12.5 to 100 µg/mL | – | – | – | – | MIC (Staphylococcus aureus [5]): 12.5 to 100 µg/mL (≈ 29.2 to 234 µM); MIC (Escherichia coli [6]): 12.5 to 100 µg/mL (≈ 29.2 to 234 µM)
Cc1c(C)c2c(c(C)c1O)CCC(C)(C(=O)N/N=C1\C(=O)Nc3ccc(Cl)cc31)O2 (stereo not drawn) | – | 12.5 to 100 µg/mL | – | – | – | – | MIC (Staphylococcus aureus [5]): 12.5 to 100 µg/mL (≈ 29.2 to 234 µM); MIC (Escherichia coli [6]): 12.5 to 100 µg/mL (≈ 29.2 to 234 µM)
Cc1ccc(C)c(NC(=O)CN2C(=O)/C(=N\c3ccccc3)c3ccccc32)c1 | 3 to 324 (≈ 1.15 to 124 ng/mL) | 3 to 324 nM | – | – | – | – | –
Cc1ccc(NC(=O)CN2C(=O)/C(=N\c3ccccc3)c3ccccc32)c(C)c1 | 3 to 324 (≈ 1.15 to 124 ng/mL) | 3 to 324 nM | – | – | – | – | –
O=C(COc1ccc(N2C(=O)C(Cl)C2c2ccc(Br)cc2)c2cccnc12)N/N=C1\C(=O)N(CN2CCCCC2)c2ccccc21 (stereo not drawn) | – | – | 6 to 19 | 6 to 19 | 6 to 19 | 6 to 19 | –
Cc1nc2ccccc2cc1C(=O)N/N=C1\C(=O)Nc2ccc([N+](=O)[O-])cc21 | – | – | 6 to 19 | 6 to 19 | 6 to 19 | 6 to 19 | –

Molecule | MIC (Salmonella typhi) [nM] | MIC (Pseudomonas aeruginosa [1]) | zone of inhibition at 100 µg/mL (Staphylococcus aureus [2]) [mm] | zone of inhibition at 100 µg/mL (Bacillus cereus) [mm] | zone of inhibition at 100 µg/mL (Escherichia coli [3]) [mm] | zone of inhibition at 100 µg/mL (Pseudomonas aeruginosa [4]) [mm] | further results
Cc1ccc(C)c(/N=C2\C(=O)N(CC(=O)Nc3ccccc3)c3ccccc32)c1 | 3 to 324 (≈ 1.15 to 124 ng/mL) | 3 to 324 nM | – | – | – | – | –
GENTAMICIN | – | – | – | – | – | – | inhibition zone (IZ) (Staphylococcus aureus [2]): 19 to 27 mm; inhibition zone (IZ) (Bacillus cereus): 19 to 27 mm; inhibition zone (IZ) (Escherichia coli [3]): 19 to 27 mm; inhibition zone (IZ) (Pseudomonas aeruginosa [4]): 19 to 27 mm
Cc1ccc(C)c(/N=C2\C(=O)N(CC(=O)Nc3ccccc3C)c3ccccc32)c1 | 3 to 324 (≈ 1.19 to 129 ng/mL) | 3 to 324 nM | – | – | – | – | –
Cc1ccc(NC(=O)CN2C(=O)/C(=N\c3cc(C)ccc3C)c3ccccc32)c(C)c1 | 3 to 15 (≈ 1.23 to 6.17 ng/mL) | 3 to 15 nM | – | – | – | – | –
O=C(COc1ccc(N2C(=O)C(Cl)C2c2ccccc2)c2cccnc12)N/N=C1\C(=O)N(CN2CCCCC2)c2ccccc21 (stereo not drawn) | – | – | 6 to 19 | 6 to 19 | 6 to 19 | 6 to 19 | –
Cc1nc2ccccc2cc1C(=O)N/N=C1\C(=O)Nc2ccc(Cl)c(Cl)c21 | – | – | 6 to 19 | 6 to 19 | 6 to 19 | 6 to 19 | –
Cc1ccc(NC(=O)CN2C(=O)/C(=N\c3ccccc3)c3ccccc32)cc1 | 3 to 324 (≈ 1.11 to 120 ng/mL) | 3 to 324 nM | – | – | – | – | –
Cc1ccc(C)c(/N=C2\C(=O)N(CC(=O)Nc3cc(C)ccc3C)c3ccccc32)c1 | 3 to 324 (≈ 1.23 to 133 ng/mL) | 3 to 324 nM | – | – | – | – | –
Cc1nc2ccccc2cc1C(=O)N/N=C1\C(=O)Nc2c1ccc(Cl)c2Cl | – | – | 6 to 19 | 6 to 19 | 6 to 19 | 6 to 19 | –
O=C(COc1ccc(N2C(=O)CSC2c2ccc(Br)cc2)c2cccnc12)N/N=C1\C(=O)N(CN2CCCCC2)c2ccccc21 (stereo not drawn) | – | – | 6 to 19 | 6 to 19 | 6 to 19 | 6 to 19 | –
O=C(COc1ccc(N2C(=O)C(Cl)C2c2ccccc2)c2cccnc12)N/N=C1\C(=O)N(CN2CCOCC2)c2ccccc21 (stereo not drawn) | – | – | 6 to 19 | 6 to 19 | 6 to 19 | 6 to 19 | –
Cc1nc2ccccc2cc1C(=O)N/N=C1\C(=O)Nc2cccc(Cl)c21 | – | – | 6 to 19 | 6 to 19 | 6 to 19 | 6 to 19 | –
Cc1nc2ccccc2cc1C(=O)N/N=C1\C(=O)Nc2c(Br)cc(Br)cc21 | – | – | 6 to 19 | 6 to 19 | 6 to 19 | 6 to 19 | –
Cc1ccc(NC(=O)CN2C(=O)/C(=N\c3ccccc3)c3ccccc32)cc1C | 3 to 324 (≈ 1.15 to 124 ng/mL) | 3 to 324 nM | – | – | – | – | –
Cc1nc2ccccc2cc1C(=O)N/N=C1\C(=O)Nc2c(Br)ccc(Br)c21 | – | – | 6 to 19 | 6 to 19 | 6 to 19 | 6 to 19 | –
COc1cccc(NC(=O)CN2C(=O)/C(=N\c3cc(C)ccc3C)c3ccccc32)c1 | 3 to 15 (≈ 1.24 to 6.2 ng/mL) | 3 to 15 nM | – | – | – | – | –
O=C(COc1ccc(N2C(=O)CSC2c2ccc(Cl)cc2)c2cccnc12)N/N=C1\C(=O)N(CN2CCCCC2)c2ccccc21 (stereo not drawn) | – | – | 6 to 19 | 6 to 19 | 6 to 19 | 6 to 19 | –
O=C(COc1ccc(N2C(=O)CSC2c2ccccc2)c2cccnc12)N/N=C1\C(=O)N(CN2CCOCC2)c2ccccc21 (stereo not drawn) | – | – | 6 to 19 | 6 to 19 | 6 to 19 | 6 to 19 | –
Cc1nc2ccccc2cc1C(=O)N/N=C1\C(=O)Nc2c(Br)cccc21 | – | – | 6 to 19 | 6 to 19 | 6 to 19 | 6 to 19 | –
Cc1ccc(C2SCC(=O)N2c2ccc(OCC(=O)N/N=C3\C(=O)N(CN4CCCCC4)c4ccccc43)c3ncccc23)cc1 (stereo not drawn) | – | – | 6 to 19 | 6 to 19 | 6 to 19 | 6 to 19 | –
O=C(COc1ccc(N2C(=O)C(Cl)C2c2ccc(Cl)cc2)c2cccnc12)N/N=C1\C(=O)N(CN2CCCCC2)c2ccccc21 (stereo not drawn) | – | – | 6 to 19 | 6 to 19 | 6 to 19 | 6 to 19 | –
COc1ccc(NC(=O)CN2C(=O)/C(=N\c3cc(C)ccc3C)c3ccccc32)cc1 | 3 to 324 (≈ 1.24 to 134 ng/mL) | 3 to 324 nM | – | – | – | – | –
Cc1nc2ccccc2cc1C(=O)N/N=C1\C(=O)Nc2ccc(F)cc21 | – | – | 6 to 19 | 6 to 19 | 6 to 19 | 6 to 19 | –
O=C(CN1C(=O)/C(=N\c2ccccc2)c2ccccc21)Nc1ccccc1 | 3 to 324 (≈ 1.07 to 115 ng/mL) | 3 to 324 nM | – | – | – | – | –
Cc1nc2ccccc2cc1C(=O)N/N=C1\C(=O)Nc2c(Cl)cccc21 | – | – | 6 to 19 | 6 to 19 | 6 to 19 | 6 to 19 | –
